Experimental data: EP0241134B1, “Pharmaceutical mixture comprising nedocromil or a salt thereof in combination with a bronchodilator” (FISONS plc, priority 1986, dated 1987)

System: acetyl choline or histamine induced bronchospasm
Experiment: Duration of action: inhibition of acetyl choline or histamine induced bronchospasm by equiactive i.v. doses
Type: in vivo
Details: anaesthetised guinea-pigs
From the text: We prefer the B₂ selective bronchodilator to be long acting. By the term 'long acting' we mean that the compound has a longer duration of action as a relaxant of bronchial smooth muscle in pharmacological tests than does isoprenaline or orciprenaline. For duration of action studies, a comparison is made of the effect of equiactive i.v. doses as inhibitors of acetyl choline or histamine induced bronchospasm in anaesthetised guinea-pigs. The duration of action of isoprenaline in such a test is relatively short (control response back to normal in 10 to 25 minutes). In the case of a compound with a longer duration of action, the control response would only return to normal over a several-fold longer period of time.

CC(C)NCC(O)c1ccc(O)c(O)c1 (stereo not shown) [isoprenaline]
duration of action (control response back to normal): 10 to 25 min
